Key:
[1] = system: HL-60 cells; test: AML xenograft survival model; assay type: in vivo, BALB/c Rag-2/JAK3 double-deficient (BRJ) mice; conditions: HL-60 xenograft, 20 days; for Median Survival Time: HP-β-CyD 2086.5 mg/kg i.p. twice a day, FA-HP-β-CyD 249 mg/kg i.p. twice a day, n = 6
Protocol: (§1) BALB/c Rag-2/JAK3 double-deficient (BRJ) mice were housed in a specific pathogen-free barrier facility and used for the xenograft transplantation experiments. All animal experiments were approved by the Institutional Review Board of Saga University and conducted in accordance with the institutional guidelines of animal care of Saga University.
(§2) HL-60 cells or THP-1 cells were injected intravenously into BRJ mice. After 72 h, mice were injected intraperitoneally with 200 μL of vehicle, FA-HP-β-CyD (15 mM, 249 mg/kg), or HP-β-CyD (150 mM, 2086.5 mg/kg) for 20 consecutive days, and survival was monitored daily. Ara-C (100 mg/kg) was injected intraperitoneally for 5 consecutive days from 72 h after transplantation. Venetoclax (25 mg/kg) was orally administered for 20 consecutive days from 72 h after transplantation. Chimerism of human leukemic cells in the BM was determined by flow cytometry after double staining with FITC-conjugated anti-human CD45 (BD Bioscience) and PE/Cy7-conjugated anti-mouse CD45 (BioLegend) antibodies. All surgery was performed under sodium pentobarbital anesthesia to minimize pain. Mice were euthanized with ether when they became moribund or were unable to obtain food or water, as recommended by Saga University institutional guidelines. Survival data were analyzed using a log-rank nonparametric test and presented as Kaplan–Meier survival curves (n = 6 for each group).

[2] = system: THP1 cells; test: AML xenograft survival model; assay type: in vivo, BALB/c Rag-2/JAK3 double-deficient (BRJ) mice; conditions: 20 days; for Median Survival Time: Figure 7B, HP-β-CyD 2086.5 mg/kg i.p. twice a day, FA-HP-β-CyD 249 mg/kg i.p. twice a day, Ara-C 100 mg/kg i.p., n = 6
Protocol: as §1, §2

[3] = system: THP1; test: cell cycle analysis (PI, flow cytometry); assay type: cell-based, human; conditions: THP1, 24 h
Protocol: (§3) Cell cycle analyses of AML cell lines (HL-60, THP1, SKM1, and Kasumi1 cells) were performed as described previously. In brief, 1 × 10^6 cells were treated with the indicated concentrations of CyDs. After 24 h of CyD treatment, cells were collected and fixed with 70% ethanol. Cells were then incubated at room temperature for 30 min with 0.1% Triton X-100/0.5% RNase A and stained with 50 μg/mL PI (BD Biosciences, San Jose, CA, USA). Cellular DNA content was analyzed by flow cytometry, and cell cycle profiles were determined in a FACS CantoII flow cytometer with CellQuest software (version 1.0.6, BD Biosciences).

[4] = system: HL-60; test: cell cycle analysis (PI, flow cytometry); assay type: cell-based, human; conditions: HL-60, 24 h
Protocol: as §3

[5] = system: SKM1; test: cell cycle analysis (PI, flow cytometry); assay type: cell-based, human
Protocol: as §3

[6] = system: Kasumi1; test: cell cycle analysis (PI, flow cytometry); assay type: cell-based, human; conditions: Kasumi1, 24 h
Protocol: as §3

[7] = system: THP1; test: autophagosome formation (DAPGreen); assay type: cell-based, human; conditions: THP1, 1 or 10 mM, 2 h
Protocol: (§4) Autophagosome formation was evaluated using the DAPGreen-Autophagy Detection Kit (Dojindo Molecular Technologies). HL-60 and THP1 cells were cultured overnight in 6-well plates at a density of 5 × 10^5 or 1 × 10^6 cells. The cells were then washed once with culture medium and incubated with DAPGreen working solution at 37 °C for 30 min. After the cells were washed twice, CyDs (1 mM, 10 mM) were added to the wells and incubated for 2 h. The samples were analyzed using a flow cytometer (FACS Canto II) or a fluorescence microscope (Carl Zeiss, Jena, Germany).

[8] = system: HL-60; test: autophagosome formation (DAPGreen); assay type: cell-based, human; conditions: HL-60, 1 or 10 mM, 2 h
Protocol: as §4

[9] = system: AML cell lines; test: Annexin V and PI staining, statements over all AML cell lines; assay type: cell-based, human; conditions: for apoptosis induction: four AML cell lines, 72 h
Protocol: PI and Annexin V (BD Biosciences, San Jose, CA, USA) staining was performed to assess apoptosis, as previously described [53]. Cells were filtered through nylon mesh and assessed using a FACSVerse flow cytometer (BD Biosciences). Data were analyzed using FlowJo software 10.8.2 (Tree Star, Inc., Ashland, OR, USA).

[10] = mouse, in vivo, ip
Protocol: (§8) At 24 h after the first injection, and at 8 days after the last of seven repeat injections, peripheral blood was collected from the tail vein and analyzed by an automated blood cell counter (Celltacα MEK-6500; NIHON KOHDEN, Tokyo, Japan). Data are presented as the mean ± SEM of three independent experiments.

[11] = system: Kasumi-1; test: modified MTT assay (Cell Counting Kit-8), cell proliferation; assay type: cell-based, human; conditions: Kasumi-1, 72 h
Protocol: (§5) The trypan blue dye exclusion method was used to evaluate cell viability. Cells (HL-60, THP1, SKM1 and Kasumi1 cells) were seeded in flat-bottomed 96-well plates at a density of 1 × 10^4 cells in 100 µL medium per well and incubated with FA-HP-β-CyD (0, 0,1, 0.25, 0.5, 0.75, 1 mM) or HP-β-CyD (0, 1, 2.5, 5, 10 mM) for 72 h. Then, viable cells were counted. Cell proliferation was evaluated by a modified MTT assay using Cell Counting Kit-8 (Dojindo Molecular Technologies, Kumamoto, Japan), as previously described. AML cells were cultured in 96-well plates at a density of 1 × 10^4 cells in 100 µL medium per well and incubated with FA-HP-β-CyD or HP-β-CyD for 72 h. […] This method is capable of quantifying synergistic (CI < 1) and antagonistic (CI > 1) effects at different dose and effect levels.

[12] = system: THP1; test: cell viability with autophagy inhibitors (Cell Counting Kit-8); assay type: cell-based, human; conditions: 1 mM FA-HP-β-CyD or 10 mM HP-β-CyD, chloroquine 20 μM, LY294002 50 μM, bafilomycin A1 1 nM
Protocol: (§6) HL-60 and THP1 cells (2 × 10^5 cells in 100 µL of RPMI-1640 medium per well) were seeded in flat-bottomed 96-well plates (Greiner Labortechnik, Hamburg, Germany) and treated with both 1 mM of FA-HP-β-CyD and 10 mM of HP-β-CyD at 37 °C for 2 h. The cells were then pretreated for 24 h with the autophagy inhibitors chloroquine (20 µM), LY294002 (50 μM; Fujifilm Wako Pure Chemicals Co., Ltd., Osaka, Japan), or bafilomycin A1 (1 nM; Funakoshi, Tokyo, Japan). Cell proliferation was assessed using Cell Counting Kit-8.

[13] = system: HL-60; test: as above; assay type: cell-based, human; conditions: 1 mM FA-HP-β-CyD or 10 mM HP-β-CyD, chloroquine 20 μM, LY294002 50 μM, bafilomycin A1 1 nM
Protocol: as §6

[14] = system: AML cell lines; test: trypan blue dye exclusion, cell viability; assay type: cell-based, human; conditions: 72 h; FA-HP-β-CyD up to 1 mM, HP-β-CyD up to 10 mM
Protocol: as §5

[15] = system: HL-60; test: modified MTT assay (Cell Counting Kit-8), cell proliferation; assay type: cell-based, human
Protocol: (§7) The trypan blue dye exclusion method was used to evaluate cell viability. Cells (HL-60, THP1, SKM1 and Kasumi1 cells) were seeded in flat-bottomed 96-well plates at a density of 1 × 10^4 cells in 100 µL medium per well and incubated with FA-HP-β-CyD (0, 0,1, 0.25, 0.5, 0.75, 1 mM) or HP-β-CyD (0, 1, 2.5, 5, 10 mM) for 72 h. Then, viable cells were counted. Cell proliferation was evaluated by a modified MTT assay using Cell Counting Kit-8 (Dojindo Molecular Technologies, Kumamoto, Japan), as previously described. AML cells were cultured in 96-well plates at a density of 1 × 10^4 cells in 100 µL medium per well and incubated with FA-HP-β-CyD or HP-β-CyD for 72 h. The half-maximal inhibitory concentration values (IC50) were determined by non-linear regression using CalcuSyn software version 1.1.1 (Biosoft, Cambridge, UK), as previously described. After obtaining IC50 values for each agent, the antileukemic activity of FA-HP-β-CyD plus cytosine arabinoside (Ara-C) or Venetoclax was evaluated, as previously described. […] CalcuSyn was used to calculate the fraction affected (Fa, in which a value of 0.25 indicates […]) and the CI. This method is capable of quantifying synergistic (CI < 1) and antagonistic (CI > 1) effects at different dose and effect levels.

[16] = system: THP-1; test: as above; assay type: cell-based, human
Protocol: as §7

[17] = system: SKM-1; test: as above; assay type: cell-based, human
Protocol: as §7

[18] = system: normal human bone marrow CD34-positive progenitor cells; test: methylcellulose colony formation assay; conditions: 10 mM HP-β-CyD, 1 mM FA-HP-β-CyD, 1 week of culture
Text: Human bone marrow CD34 positive cells were purchased from LONZA (Bazel, Switzerland). […] After 1 week of culture, the number of colonies was counted using an inverted microscope. Data represent the mean number of colonies ± SEM (n = 3).

[19] = peripheral blood cell count after intraperitoneal administration; conditions: for Hb / Plt / WBC: seven repeat injections, Day 8
Protocol: as §8

[20] = Figure 7A, Ara-C 100 mg/kg i.p.
[21] = Figure 7C, Venetoclax 25 mg/kg oral gavage daily

Molecule	Median Survival Time [1, 20] [days]	Median Survival Time [1, 21] [days]	Median Survival Time [2] [days]	effect on cell cycle status [3]	effect on cell cycle status [4]	effect on cell cycle status [6]	apoptosis induction [9]	viability in the presence of autophagy inhibitors vs CyD alone [12]	viability in the presence of autophagy inhibitors vs CyD alone [13]	cell viability (trypan blue) [14]	IC50 ([15]; Homo sapiens, HL-60) [µM]	IC50 ([16]; Homo sapiens, THP-1, THP1) [µM]	IC50 ([17]; Homo sapiens, SKM-1, SKM1) [µM]	other results
folate-conjugated HP-β-CyD [FA-HP-β-CyD]	38	35	50.5	no alteration in cell cycle status	no alteration in cell cycle status	no alteration in cell cycle status	triggered early apoptosis in four AML cell lines in a dose-dependent manner	higher than that in the presence of FA-HP-β-CyD alone	higher than that in the presence of FA-HP-β-CyD alone	reduced the cell viability of the AML cell lines in a dose-dependent manner	–	–	–	survival compared with vehicle-injected mice ([1]; 249 mg/kg i.p. b.i.d.): survived significantly longer; survival compared with vehicle-injected mice ([2]; 249 mg/kg i.p. b.i.d.): survived significantly longer; effect on cell cycle status (predicted, no experimental data) ([5]; SKM1): no change in the cell cycle status was predicted; number of autophagic vacuoles (DAPGreen fluorescence) [7]: increased; number of autophagic vacuoles (DAPGreen fluorescence) [8]: increased; adverse effects on white blood cell counts, hemoglobin concentrations, platelet counts [10]: no adverse effects; IC50 [11]: 300 µM; IC50 ([15]; HL-60, 72 h): 620 µM; IC50 ([16]; THP-1, 72 h): 320 µM; IC50 ([17]; SKM-1, 72 h): 200 µM
CC(O)COC[C@H]1O[C@@H]2O[C@H]3[C@H](O)[C@@H](O)[C@@H](O[C@H]4[C@H](O)[C@@H](O)[C@@H](O[C@H]5[C@H](O)[C@@H](O)[C@@H](O[C@H]6[C@H](O)[C@@H](O)[C@@H](O[C@H]7[C@H](O)[C@@H](O)[C@@H](O[C@H]8[C@H](O)[C@@H](O)[C@@H](O[C@H]1[C@H](O)[C@H]2O)O[C@@H]8COCC(C)O)O[C@@H]7COCC(C)O)O[C@@H]6COCC(C)O)O[C@@H]5COCC(C)O)O[C@@H]4COCC(C)O)O[C@@H]3COCC(C)O (stereo partly drawn) [HP-β-CyD, 2-Hydroxypropyl-β-cyclodextrin]	38	35	49.5	dose-dependent increase in the percentage of cells in G2/M phase	dose-dependent increase in the percentage of cells in G2/M phase	dose-dependent increase in the percentage of cells in G2/M phase	underwent apoptosis	not affected by the presence or absence of autophagy inhibitors	not affected by the presence or absence of autophagy inhibitors	reduced the cell viability of the AML cell lines in a dose-dependent manner	–	–	–	effect on cell cycle status ([5]; SKM1, before and after exposure): no change in cell cycle; mode of cell death at high concentration ([9]; 15 mM HP-β-CyD): appeared to undergo necrosis; IC50 ([11]; Homo sapiens): 3140 µM; colony formation [18]: reduced colony numbers; change in blood cell counts compared with vehicle (PBS) ([19]; 8 days after intraperitoneal injection, exception: higher dose of HP-β-CyD (10,000 mg/kg b.i.d.)): no significant change; Hb ([19]; HP-β-CyD 2000 mg/kg i.p.): 12.4 ± 0.67 g/dL; Plt ([19]; HP-β-CyD 2000 mg/kg i.p.): 64.5 ± 2.29 ×10^4/μL; WBC ([19]; HP-β-CyD 2000 mg/kg i.p.): 44.7 ± 12.65 ×10^2/μL; Hb ([19]; HP-β-CyD 6000 mg/kg i.p.): 14.3 ± 0.25 g/dL; Plt ([19]; HP-β-CyD 6000 mg/kg i.p.): 60.2 ± 10.69 ×10^4/μL; WBC ([19]; HP-β-CyD 6000 mg/kg i.p.): 50.0 ± 2.34 ×10^2/μL; Plt ([19]; HP-β-CyD 10,000 mg/kg i.p.): 75.5 ± 17.83 ×10^4/μL; WBC ([19]; HP-β-CyD 10,000 mg/kg i.p., p < 0.05): 30.5 ± 1.65 ×10^2/μL; IC50 ([15]; Homo sapiens, HL-60, 72 h): 7660 µM; IC50 ([16]; Homo sapiens, THP-1, 72 h): 9050 µM; IC50 ([17]; Homo sapiens, SKM-1, 72 h): 9440 µM
CC1(C)CCC(CN2CCN(c3ccc(C(=O)NS(=O)(=O)c4ccc(NCC5CCOCC5)c([N+](=O)[O-])c4)c(Oc4cnc5[nH]ccc5c4)c3)CC2)=C(c2ccc(Cl)cc2)C1 [Venetoclax]	–	36	–	–	–	–	–	–	–	–	0.0503	0.442	1.1	–
Nc1ccn([C@@H]2O[C@H](CO)[C@@H](O)[C@@H]2O)c(=O)n1 [Ara-C, cytarabine]	34	–	45.5	–	–	–	–	–	–	–	0.495	7.19	0.6	–

Reference: paper PMC10706821, “Folate-Appended Hydroxypropyl-β-Cyclodextrin Induces Autophagic Cell Death in Acute Myeloid Leukemia Cells” (International Journal of Molecular Sciences, 2023)
